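Each compound was tested at five concentrations against cells in 96-well plates for 48 hours. The concentration for full growth arrest is given as TGI.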
What was measured:
Experiment in all cases: NCI anticancer screen, dose series, 48 h
CAKI-1 renal = tested on: CAKI-1 renal
NCI-H23 lung = tested on: NCI-H23 lung
SF-295 CNS = tested on: SF-295 CNS
MOLT-4 leukemia = tested on: MOLT-4 leukemia
NCI-H226 lung = tested on: NCI-H226 lung
NCI-H460 lung = tested on: NCI-H460 lung
T-47D breast = tested on: T-47D breast
OVCAR-5 ovarian = tested on: OVCAR-5 ovarian
KM12 colon = tested on: KM12 colon
HCT-15 colon = tested on: HCT-15 colon

| Compound | TGI (CAKI-1 renal) [µM] | TGI (NCI-H23 lung) [µM] | TGI (SF-295 CNS) [µM] | TGI (MOLT-4 leukemia) [µM] | TGI (NCI-H226 lung) [µM] | TGI (NCI-H460 lung) [µM] | TGI (T-47D breast) [µM] | TGI (OVCAR-5 ovarian) [µM] | TGI (KM12 colon) [µM] | TGI (HCT-15 colon) [µM] |
| --- | --- | --- | --- | --- | --- | --- | --- | --- | --- | --- |
| C=CCCC1(CC(Sc2ccccc2)P(=O)(c2ccccc2)c2ccccc2)OCCO1 (stereo unspecified) | > 10 | > 10 | > 10 | > 10 | > 10 | > 10 | > 10 | > 10 | > 10 | > 10 |
| CC1(C)OC(=O)N(c2ccccc2)C12C=Cc1cc([N+](=O)[O-])ccc1O2 (stereo unspecified) | > 100 | > 100 | > 100 | 84.9 | > 100 | > 100 | 86.9 | > 100 | > 100 | > 100 |
| N#Cc1c(-c2ccccc2)[nH]c2ccc(Cl)cc2c1=O | > 100 | > 100 | 66.2 | > 100 | > 100 | > 100 | > 100 | > 100 | > 100 | > 100 |
| CCOC(=O)C1C(=O)CC1(C)C (stereo unspecified) | > 10 | > 10 | > 10 | > 10 | > 10 | > 10 | > 10 | > 10 | > 10 | > 10 |
| CC(=O)OC1C(Oc2c(C)cc3c(c2O)[C@@H](C)CC[C@@H]3[C@@H](C)CCC=C(C)C)OCC(O)C1O (stereo partly specified) | 36 | 34.3 | 35.3 | 49.7 | 40.6 | 33.2 | 43.5 | 30.6 | 31.2 | 34.1 |
| CC(CC[C@@]1(C)C(=O)CCC2O[C@]21C)[C@H]1C[C@@H](c2ccoc2)OC1=O (stereo partly specified) | 71.8 | > 100 | > 100 | 84.7 | > 100 | > 100 | > 100 | > 100 | > 100 | > 100 |
| O=C1c2ccccc2C(=O)N1CCCCNOCCCN1C(=O)c2ccccc2C1=O | > 100 | > 100 | > 100 | > 100 | > 100 | > 100 | > 100 | > 100 | > 100 | > 100 |
| CCOC(C)O[C@H]1C(=O)OCC1(C)C (stereo partly specified) | > 100 | > 100 | > 100 | > 100 | > 100 | > 100 | > 100 | > 100 | > 100 | > 100 |
| Cc1ccc(S(=O)(=O)N/N=C2/CCCOC2)cc1 | > 100 | > 100 | > 100 | > 100 | > 100 | > 100 | > 100 | > 100 | > 100 | > 100 |
| Cc1ccc2c3c1O[C@H]1c4[nH]c5ccccc5c4C[C@@]4(O)[C@@H](C2)N(CC2CC2)CC[C@]314 | 30.4 | 39.5 | 31.1 | 32.9 | 30.5 | 30.5 | 36.6 | 35.1 | 32.5 | 38.1 |
| CCOC(=O)c1ccc(NCc2ccc3oc(=O)c(-c4ccccc4)nc3c2)cc1 | 52.5 | 44.5 | > 100 | 60.4 | > 100 | > 100 | 34.1 | > 100 | > 100 | > 100 |
| COC(=O)Nc1nc2ccc(S(=O)(=O)SC)cc2[nH]1 | > 100 | – | > 100 | > 100 | > 100 | > 100 | 30.4 | 45.1 | > 100 | 19.4 |
| CSc1cc(Cl)c(C)cc1S(=O)(=O)NC(=O)NNc1cccc(C(F)(F)F)n1 | > 100 | – | > 100 | 51.8 | > 100 | > 100 | > 100 | > 100 | > 100 | > 100 |
| O=[N+]([O-])c1ccc(S(=O)(=O)n2c3ccc(Br)cc3c3nc4ccccc4nc32)cc1 | > 100 | > 100 | > 100 | > 100 | > 100 | > 100 | > 100 | > 100 | > 100 | > 100 |
| NNC(=S)N/N=C(/C(=O)Nc1ccc(Cl)c(Cl)c1)C(C1OC(=O)c2ccccc21)[N+](=O)[O-] (stereo unspecified) | > 100 | > 100 | > 100 | > 100 | > 100 | > 100 | > 100 | > 100 | > 100 | > 100 |
| C=C(C)[C@H]1Cc2c(ccc3c2O[C@@H]2COc4cc(OC)c(OC)cc4[C@@H]2C3=O)O1 | 63.8 | 14.1 | 38 | 45.2 | 31.3 | 15.8 | > 97.1 | > 100 | 14.3 | 40.4 |
| CC(C)=CCC(O)[C@](C)(O)[C@H]1[C@H](O)C[C@@]2(C)[C@@H]3CCc4cc(O)c(OC5OC(CO)C(O)C(O)C5O)cc4C3(C)C(=O)C[C@]12C (stereo partly specified) | > 100 | > 100 | > 100 | > 100 | > 100 | > 100 | > 100 | > 100 | > 100 | > 100 |
| Cc1ccc([N+](=O)[O-])c2c(NCCC[N+](C)(C)[O-])c3ccccc3nc12 | 97 | 3.41 | > 100 | – | 5.17 | 5.14 | 7 | 10.2 | > 21.1 | 33 |
| N#C/C(=C/NC(N)=S)C(N)=O | > 100 | > 100 | > 100 | – | > 100 | > 100 | > 100 | > 100 | > 100 | > 100 |
| Clc1ccc(-c2cc3nc4ccccc4nc3o2)cc1 | > 100 | > 100 | > 100 | > 100 | > 100 | > 100 | > 100 | > 100 | > 100 | > 100 |
| CCN1CCN(c2nc3ccccc3c3c2CCOc2ccccc2-3)CC1 | > 55.3 | > 100 | > 63 | > 56 | > 77.9 | > 73.9 | > 69.8 | > 65.2 | > 56 | 40.1 |

Source: PubChem BioAssay (NCI)
